# Like-named read-outs stand apart in the source and are kept apart here. Square brackets hold non-standard residues; d marks the D form. Peptide text beside a SMILES is read from it. pGlu = O=C1CC[C@@H](C(=O)O)N1
# Key:
# [1] = Pharmacokinetics after bolus intradermal injection in an adult rat; assay type: in vivo
# Method: To improve their chemical stability and increase resistance to exopeptidases, peptides were synthesised as acetate salts of “capped” N-pyroglutamate, C-amide: NPL001 (SEQ ID NO:228), NPL002 (SEQ ID NO:229) and NPL003 (SEQ ID NO:230) 15mers or 16mers with glutamate at sites predicted to be deamidated by tTG. Indeed, capping extended the half-lives of peptides from 10-12 minutes for free peptides: NPL033, NPL038, and NPL034 (SEQ ID NOs:13, 320 and 321) after bolus intradermal injection of 0.9 mg in 0.1 ml in an adult rat to 26-28 minutes with N-pyroglutamate and C-amidation (SEQ ID NOs:228, 229 and 230) or 19-24 minutes with N-acetylation and C-amidation (SEQ ID NOs:231, 232, and 233), (see Table 4).
# [2] = tested on: CD4+ T cells specific for NPL001; test: Proliferation of transferred CFSE labelled NPL001-specific CD4+ T cells after subcutaneous administration (adoptive transfer model); assay type: in vivo; settings: previous mouse studies
# Description: The interaction between NPL001 (SEQ ID NO:228) and cognate T cells in vivo has been modelled by developing transgenic Black-6 mice expressing functional HLA-DR3 and -DQ2 (but not murine MHC Class II molecules) on antigen presenting cells (APC) who are transferred 3×10^6 CFSE labelled CD4^+ T cells specific for NPL001 (Chen Z., et al., 2006). The donor mouse (HH8-1) is transgenic for the NPL001-specific T cell receptor and human CD4 expressed on T cells, and also expresses HLA-DR3 DQ2 on APC. Overall 96% of the CD4^+ T cells in the HH8-1 mouse are clonal and specific for NPL001 (results not shown).
# Four days after subcutaneous administration (in the hind foot hock) of an equimolar mixture of NPL001, NPL002 and NPL003 in 50 μl saline, spleen, gut-draining mesenteric lymph nodes (MLN) and the local draining popliteal lymph nodes (PLN) are harvested. Isolated mononuclear cells are stained for hCD4, and the T-cell receptor α- and β-chains expressed on the HH8-1 NPL001-specific T cells (Vα8 and Vβ8). Proliferation of transferred CFSE labelled cells is measured as the % CFSE^pos cells having undergone one or more division, as indicated by dilution of CFSE staining.
# [3] = tested on: gluten peptide-specific T cells in PBMC from HLA-DQ2+ celiac disease donors; test: IFNγ ELISpot of PBMC collected on day 6 after oral gluten challenge; assay type: cell-based, human
# [4] = tested on: gluten peptide-specific T cells in PBMC from HLA-DQ2+ celiac disease donors; settings: day-6 PBMC, cited from earlier work
compound,measurement,setting,value
"CC(C)C[C@H](NC(=O)[C@@H]1CCC(=O)N1)C(=O)N[C@@H](CCC(N)=O)C(=O)N1CCC[C@H]1C(=O)N[C@@H](Cc1ccccc1)C(=O)N1CCC[C@H]1C(=O)N[C@@H](CCC(N)=O)C(=O)N1CCC[C@H]1C(=O)N[C@@H](CCC(=O)O)C(=O)N[C@@H](CC(C)C)C(=O)N1CCC[C@H]1C(=O)N[C@@H](Cc1ccc(O)cc1)C(=O)N1CCC[C@H]1C(=O)N[C@@H](CCC(N)=O)C(=O)N1CCC[C@H]1C(=O)N[C@@H](CCC(N)=O)C(N)=O [NPL001, pyroELQPFPQPELPYPQPQ-amide] ([pGlu]LQPFPQPELPYPQPQ-NH2)",T1/2 half life,"[1]; adult rat, intradermal bolus injection 0.9 mg in 0.1 ml saline of equimolar mixture",T1/2 28.20 minutes
same,AUC area under the curve (bioavailability),"[1]; rat, in vivo, 0.9 mg",AUC 89350
same,half-life,"[1]; rat, in vivo, intradermal bolus injection, 0.9 mg, adult rat, intradermal bolus injection 0.9 mg in 0.1 ml saline of equimolar mixture, read-out: T1/2 half life",26 to 28 min
same,bioactivity in vivo of a single dose,[2],bioactive in vivo
"NC(=O)CC[C@H](NC(=O)[C@H](Cc1c[nH]c2ccccc12)NC(=O)[C@@H]1CCCN1C(=O)[C@H](Cc1ccccc1)NC(=O)[C@@H]1CCCN1C(=O)[C@H](CCC(N)=O)NC(=O)[C@H](CCC(=O)O)NC(=O)[C@@H]1CCCN1C(=O)[C@H](CCC(N)=O)NC(=O)[C@@H]1CCCN1C(=O)[C@H](Cc1ccccc1)NC(=O)[C@@H]1CCCN1C(=O)[C@H](CCC(N)=O)NC(=O)[C@@H]1CCC(=O)N1)C(=O)N1CCC[C@H]1C(N)=O [NPL002, pyroEQPFPQPEQPFPWQP-amide] ([pGlu]QPFPQPEQPFPWQP-NH2)",bioactivity after lysine-substitution of the central PQPEQPF sequence,"[3]; 32 μg/ml, after wheat (n=7), barley (n=9) or rye challenge (n=10)",abolished the bioactivity
same,effect of anti-HLA-DQ / -DR preincubation on IFNγ ELISpot response,"[3]; PBMC from HLA DQA1*05 DQB1*02 homozygotes and heterozygotes, data not shown",anti-HLA-DQ but not -DR abolished
same,AUC area under the curve (bioavailability),"[1]; rat, in vivo, 0.9 mg",AUC 81514
same,T1/2 half life,"[1]; rat, in vivo, 0.9 mg",T1/2 27.18 minutes
same,half-life,"[1]; rat, in vivo, 0.9 mg, T1/2 half life",26 to 28 min
QLQPFPQPELPYPQPQS (alpha-gliadin p57-73 QE65) [α-gliadin p57-73 QE65],IFNγ ELISpot response relative to tTG-treated gliadin in 3/17 donors,[4]; 3/17 donors,less than 5%
same,Median IFNγ ELISpot response as percentage of that to tTG-treated gliadin (500 μg/ml),"[4]; n=17, range 0-155%",51%
QYEVIRSLVRTLPNM (QYEVIRSLVLRTLPNM; W36),requirement for deamidation for T cell stimulation,[3]; second round libraries,Exceptions to the requirement for deamidation
